# Results reported in ChEMBL document CHEMBL5728730, “Tri-substituted imidazoles for the inhibition of TGF beta and methods of treatment” (2021).
# Molecular target: T1, TGF-beta receptor type-1 (Homo sapiens, UniProt P36897)
# T1 sequence (P36897 whole entry): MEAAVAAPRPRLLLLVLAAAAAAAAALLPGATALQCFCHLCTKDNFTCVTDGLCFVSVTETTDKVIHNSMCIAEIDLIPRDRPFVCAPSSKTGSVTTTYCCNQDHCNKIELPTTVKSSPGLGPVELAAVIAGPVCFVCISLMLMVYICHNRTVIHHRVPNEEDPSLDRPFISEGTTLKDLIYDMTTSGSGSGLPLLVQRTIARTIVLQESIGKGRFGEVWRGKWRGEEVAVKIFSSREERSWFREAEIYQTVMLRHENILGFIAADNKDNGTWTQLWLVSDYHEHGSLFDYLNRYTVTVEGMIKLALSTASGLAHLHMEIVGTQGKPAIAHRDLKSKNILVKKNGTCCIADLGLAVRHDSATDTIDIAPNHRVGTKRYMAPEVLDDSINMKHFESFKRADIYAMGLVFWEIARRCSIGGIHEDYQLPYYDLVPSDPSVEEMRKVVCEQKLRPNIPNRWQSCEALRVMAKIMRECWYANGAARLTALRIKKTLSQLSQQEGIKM
# Assay: LanthaScreen™Eu Kinase Binding Assay TGFBR1 (ALK5): Exemplified compounds were screened in 1% DMSO (final concentration) by 3-fold serial dilutions from 10,000 nM to 0.316 nM to produce an IC50 or at single concentrations of 10,000, 1000 and 100 nM according to the following protocol. To low volume, white 384-well plates (Greiner Cat #784207) add 160 nL 100× compound in 100% DMSO, 3.84 uL kinase buffer (50 mM HEPES, pH 7.5, 0.01% BRIJ-35, 10 mM MgCl2, 1 mM EGTA), 8 uL 2× kinase/antibody mixture in kinase buffer (final ALK5 concentration of 5 nM; final Eu-anti-GST antibody concentration of 2 nM), 4 uL 4× Tracer #178 in kinase buffer (final concentration of 5 nM). Gently shake the plates for 30 seconds and incubate at room temperature for 1 hour before reading fluorescence on a plate reader. Percent inhibition was determined compared to DMSO only control (maximal ALK5 tracer binding) and sigmoidal dose response curve fit yielded IC50 values as indicated in Table 2.
row,SMILES,IC50 [nM]
1,CC(C)n1ccc(-c2nc(-c3ccc(C(N)=O)cc3)[nH]c2-c2ccc3ncnn3c2)n1,< 1000
2,CC(C)n1ccc(-c2nc(CNc3cc(F)cc(F)c3)[nH]c2-c2ccc3nccnc3c2)n1,46.4
3,CC(C)n1ccc(-c2nc(CNc3cc(F)cc(C#N)c3)[nH]c2-c2ccc3nccnc3c2)n1,138
